In ChEMBL document CHEMBL1126519, “Addition of amines to methyl 3-dehydroquinate and 3-dehydroshikimate” (Bioorg Med Chem Lett, 1993) one finds pKa and pKA data, which are given here for 8 compounds.

The term pKa denotes the pH at which an ionisable group is half protonated. Read a low pKa as a group that gives up its proton readily.

One series can be described thus: pKA value in aqueous solution. The settings on record: aqueous solution.
The compound `NCc1ccccn1` displayed a pKa of 8.62. In the case of `NCCc1ccccn1`, the pKa was determined as 9.52.

As to `CN(C)c1ccc(N)cc1`, the pKa was 6.71. In turn, `COC(=O)C(N)CCCCNC(=O)OC(C)(C)C` (stereo not drawn) showed a pKa of 8.9. In turn, `COC(=O)CN` returned a pKa of 7.73. For the compound `COC(=O)C(CCCCN)NC(=O)OC(C)(C)C` (stereo not drawn), the pKa was 10.8.

Consider `NCCc1ccccc1` [PHENETHYLAMINE], for which the pKa is 9.08.

Staying with this series, now noted: buffer.
In turn, `Nc1ccccn1` [2-AMINOPYRIDINE] had a pKA of 7.6.
